According to patent publication US20040067959A1, “Morphinoid derivatives as delta-opioid agonists and antagonists” (priority 2000, published 2004):

What was measured:
[1] = target: T1, human delta opioid receptors (Homo sapiens, UniProt P41143); assay: radioligand binding assay, cloned human delta opioid receptor, [3H]-DADLE
T1 construct: expressed in transfected cells; membranes
Method: (§1) The activity of the compounds of the present invention as selective delta ligands is determined in radioligand binding assays using cloned human delta, mu and kappa opioid receptors stably expressed in cell lines as described below.
(§2) CHO cells were subjected to stable transfection with cDNA encoding the human delta and mu opioid receptors. Clones were grown in suspension culture in serum free media. Selection was performed by growth in the absence of nucleotides.
(§3) Membranes were prepared as previously described (J. Med. Chem. 1997, 40 3192). The binding of the preferential delta ligand [^3H]-[D-Ala^2,D-Leu^5]-enkephalin (DADLE) was evaluated at its KD concentration (0.7 nM). The binding of the mu ligand [^3H]-DAMGO (Eur. J. Pharmacol., 1989, 166, 213) and of the kappa ligand [^3H]-U69593 (Excerpta Medica, 1990, 211) were carried out at 0.5 nM. Non specific binding was determined in the presence of 10 uM of naloxone. Binding data were expressed as percentage of inhibition and fitted the following equation: f(x)=100·X/(IC50+X) where X is the cold drug concentration value. The IC50 values obtained were used to calculate the inhibitory constants (Ki) according to the Cheng and Prusoff relation (Biochem. Pharmacol., 1973, 22, 3099).

[2] = target: T2, human mu opioid receptors (Homo sapiens, UniProt P35372); assay: radioligand binding assay, cloned human mu opioid receptor, [3H]-DAMGO; details: ratio of Ki at human mu ([3H]-DAMGO 0.5 nM) to Ki at human delta
T2 construct: expressed in transfected cells; membranes
T2 sequence (P35372 whole entry): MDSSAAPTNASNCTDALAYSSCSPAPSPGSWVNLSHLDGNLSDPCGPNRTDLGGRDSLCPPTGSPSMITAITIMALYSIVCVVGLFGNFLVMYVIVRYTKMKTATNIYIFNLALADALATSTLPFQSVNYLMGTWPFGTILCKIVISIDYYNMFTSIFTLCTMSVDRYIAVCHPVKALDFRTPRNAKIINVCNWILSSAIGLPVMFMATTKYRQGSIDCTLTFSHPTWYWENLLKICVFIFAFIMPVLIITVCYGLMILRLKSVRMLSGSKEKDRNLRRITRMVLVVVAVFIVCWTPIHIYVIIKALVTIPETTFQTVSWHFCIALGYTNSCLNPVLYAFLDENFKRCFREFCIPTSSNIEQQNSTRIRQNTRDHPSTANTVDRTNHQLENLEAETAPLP
Method: as §1, §2, §3

T1 sequence (P41143 whole entry): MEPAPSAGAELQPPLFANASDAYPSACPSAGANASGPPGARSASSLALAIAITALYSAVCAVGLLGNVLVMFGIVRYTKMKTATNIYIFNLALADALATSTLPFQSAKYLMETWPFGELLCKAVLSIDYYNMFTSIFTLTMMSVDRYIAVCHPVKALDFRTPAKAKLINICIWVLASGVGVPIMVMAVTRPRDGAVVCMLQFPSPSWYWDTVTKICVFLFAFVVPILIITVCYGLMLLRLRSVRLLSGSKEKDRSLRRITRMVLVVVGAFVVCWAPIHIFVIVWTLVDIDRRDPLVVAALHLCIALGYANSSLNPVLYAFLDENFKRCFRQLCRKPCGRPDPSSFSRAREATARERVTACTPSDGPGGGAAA

Compound	Ki [1] [nM]	Ki mu/Ki delta [2]
COc1ccc2c3c1O[C@H]1c4[nH]c(C(=O)N5CCN(c6ccc(C)cc6C)CC5)c(C)c4C[C@H]4[C@@H](C2)N(C)CC[C@]314 [Example 6]	1	437
COc1ccc(N2CCN(C(=O)c3[nH]c4c(c3C)C[C@H]3[C@H]5Cc6ccc(OC)c7c6[C@@]3(CCN5C)[C@H]4O7)CC2)c(OC)c1 [Example 23]	0.6	1010
